Laboratory results from PMC12677652, “Procyanidin B3 and Its Derivatives Alleviate Neuronal Injury by Targeting G3BP1 for Ischemic Stroke Therapy” (Advanced Science, 2025).

How the values were obtained:
[1] = system: tMCAO mice; experiment: tMCAO model in mice (neurological deficit score, infarct volume, apoptosis, SG level); format: in vivo; settings: for SG levels in the ischemic cortex / ischemic brain tissue: 48 mg kg^−1, i.p.
Procedure: Mice were kept anesthetized during surgery with 1% pentobarbital sodium (50 mg kg^−1, Sigma‐Aldrich, USA) by i.p. injection. Transient ischemia was induced by using the suture occlusion technique according to our previous studies.^[ [10] ^] Expose the common carotid artery area, insert a 6–0 sized silicon rubber‐coated filament into the left internal carotid artery until it reaches the approximate branch of the left middle cerebral artery, and leave it for 1–1.5 h to block blood flow. Then, the suture and the filament were removed, and the wounds were sutured. 24 h after the operation, a series of phenotypic evaluations was conducted on each mouse. The Bederson score was applied according to our previous studies.^[ [10] ^]
Apoptosis level was evaluated by TUNEL staining and flow cytometry. For TUNEL staining, HT22 cells were treated with 4% paraformaldehyde for 15 min. Then the fixed brain tissue slices and HT22 cells were permeabilized for 5 min using 1% Triton X‐100 (Sigma‐Aldrich, USA) dissolved in PBS. TUNEL staining was executed by following the instructions, using a one‐step TUNEL apoptosis assay kit (Meilunbio, China). Red fluorescence was utilized to identify apoptotic cells, while 4′, 6‐diamidino‐2‐phenylindole (DAPI) was used to counterstain the nuclei. The fluorescence microscope (Carl Zeiss, Germany) was used to obtain images. For flow cytometry, apoptotic cells were determined with the Annexin V‐Alexa Fluor 488/PI apoptosis detection kit (Yeasen, China) by following the instructions. EDTA‐free trypsin (Gibco, USA) was added to HT22 cells (2.5 × 10^5 cells). The cells were collected and washed with pre‐cooling PBS 2 times, then suspended in 250 µL 1× binding buffer. 100 µL cell suspension was dyed with 5 µL Annexin V‐Alexa Fluor 488 and 10 µL PI and plunged into darkness at room temperature for 15 min. Then the cell suspension was mixed with 400 µL of 1× binding buffer. Cell apoptosis was immediately determined by Cytek Aurora (Cytek Biosciences, USA).
Cells and tissues were homogenized in RIPA buffer (Beyotime, China) containing protease inhibitors (Biovision, USA) on ice for 30 min. After centrifugation (13000 r min^−1, 4 °C) for 10 min, the resulting supernatant was collected. The protein concentrations were determined by a BCA protein assay kit (Thermo Scientific, USA). After separating a 10% sodium dodecyl sulfate (SDS)‐polyacrylamide gel, protein on the gel was then transferred onto nitrocellulose membranes (Merck, USA), which were blocked with 5% bovine serum albumin for 1 h to prevent non‐specific binding. Then, the anti‐caspase 3 antibody (catalog no. 9662, Cell Signaling Technology, USA), anti‐Bcl‐2 antibody (catalog no. GTX100064, GeneTex, USA), anti‐G3BP1 antibody (catalog no. 66486‐1‐Ig, Proteintech, China), anti‐β‐tubulin antibody (catalog no. 66240‐1‐Ig, Proteintech, China), and anti‐β‐actin antibody (catalog no. 66009‐1‐Ig, Proteintech, China) were used for treating the membrane overnight at 4 °C. Bound antibodies were detected with the species‐appropriate horseradish peroxidase‐labeled secondary antibody (Jackson ImmunoResearch, USA) using ECL reagents (ShareBio, China). Protein‐specific signals were detected using a Bio‐Rad Imager (Bio‐Rad, USA), and the bands were quantified by densitometric analysis software (ImageJ). β‐tubulin or β‐actin was used as a loading control.
Cerebral infarction volume was evaluated by Nissl staining or 2,3,5‐triphenyltetrazolium chloride staining. The infarct volume was computed using image‐processing software (Image J), and the percentage of the infarct volume was calculated according to our previous studies.^[ [10] ^] For Nissl staining, the fixed brain tissue slices were washed twice with ultrapure water for 2 min each time. Next, they were stained with Nissl staining solution (Beyotime, China) at 37 °C for 10 min, washed twice with ultrapure water, washed once with 95% ethanol, and washed twice with 70% ethanol. […]

[2] = Pharmacokinetic study in mice, i.p. injection; format: in vivo; settings: C57BL/6, mouse, ip, 48 mg kg^−1 i.p., plasma, mean ± S.D., n = 3
Procedure: Pharmacokinetic analyses were performed using a LC‐40D XS HPLC system (Shimadzu, Japan) coupled with a Sciex Triple Quad 5500 mass spectrometer (AB SCIEX, USA). Tested compounds PB3 and 6c were administered by i.p. injection (48 mg kg^−1, formulation solvent: normal saline). Blood samples were drawn from the retro‐orbital vein at 0.083, 0.25, 0.5, 1, 2, 4, 8, and 24 h post‐injection with EDTA dipotassium salt as an anticoagulant. Subsequently, the plasma fractions were collected in Eppendorf tubes and centrifuged at 4000 g for 5 min at 4 °C and stored at −80 °C for analysis. Brain tissue was mixed with four‐fold normal saline for homogenization (10 s per time with a 10 s interval for 3–5 times). Then, the mixture was centrifuged at 4000 g for 5 min at 4 °C, and the supernatant was stored at −80 °C for analysis. For sample preparation, the desired serial concentrations of working solutions were achieved by diluting a stock solution of analyte with 50% methanol in water solution. 2 µL of working solutions were added to 10 µL of the blank C57BL/6 mouse plasma/brain homogenate to achieve calibration standards of 10–10 000 ng mL^−1 (10, 20, 100, 200, 1000, 2000, 4000, 10 000 ng mL^−1) in a total volume of 12 µL. Three quality control samples at 20 ng mL^−1, 1600 ng mL^−1, and 8000 ng mL^−1 for plasma were prepared independently of those used for the calibration curves. These QC samples were prepared on the day of analysis in the same way as calibration standards.

[3] = 48 mg kg^−1 i.p., compared to the model group

Row | AUC(0-inf) [2] | AUC(0-t) [2] | Cmax [2] | MRT inf [2] | half-life [2] | SMILES | SG levels in the ischemic cortex / ischemic brain tissue [1] | neuroprotective activity compared with the model group ([1]; 48 mg kg^−1, 1.5 h of MCAO and 24 h of reperfusion) | reduction of infarct volume ([1]; 1 h ischemia, i.p. injection after reperfusion, 24 h after reperfusion) | neurological deficit score ([1]; 1 h ischemia, i.p. injection after reperfusion, 24 h after reperfusion, preliminary screening) | infarct area and neurological function at different doses ([1]; 1.5 h of MCAO and 24 h of reperfusion) | neurological deficit score ([1]; 48 mg kg^−1 i.p., 1.5 h MCAO, 24 h after reperfusion) | infarct volume ([1]; 48 mg kg^−1 i.p., 1.5 h MCAO, 24 h reperfusion, Nissl staining) | apoptosis level (TUNEL staining of frozen brain sections) [1, 3] | expression level of Bcl‐2 in the ischemic cortex [1, 3] | expression level of cleaved caspase‐3 in the ischemic cortex [1, 3]
1 | 10400 ± 1280 ng·h/mL | 10200 ± 1250 ng·h/mL | 25200 ± 2500 ng/mL | 0.76 ± 0.03 h | 2.01 ± 0.26 h | CC(C)c1c(O)cc(O)c2c1O[C@H](c1ccc(O)c(O)c1)[C@@H](O)[C@@H]2c1c(O)cc(O)c2c1O[C@H](c1ccc(O)c(O)c1)[C@@H](O)C2 [Compound 6c, 8‐Isopropyl‐(+)‐Catechin‐(4α,8)‐(+)‐Catechin] | mediate SG upregulation | best neuroprotective activity | ≈ 30% | more pronounced trend toward improving neurological deficits | therapeutic effect on ischemic injury in a dose‐dependent manner |  |  |  |  | 
2 | 22300 ± 1970 ng·h/mL | 22200 ± 1940 ng·h/mL | 30400 ± 1790 ng/mL | 1.42 ± 0.06 h | 4.43 ± 0.34 h | Oc1cc(O)c2c(c1)O[C@H](c1ccc(O)c(O)c1)[C@@H](O)[C@@H]2c1c(O)cc(O)c2c1O[C@H](c1ccc(O)c(O)c1)[C@@H](O)C2 [Compound 1, procyanidin B3] | significantly enhanced SG levels |  |  |  |  | improved neurological deficits | significantly reduced | significantly reduced | increased | decreased
